From US11690810B2, “Combination treatment of bacterial infection” (The Chinese University of Hong Kong, priority 2018, dated 2023)
Read-outs that look alike come from different tables or passages of the source.

How the values were obtained:
Experiment in all cases: MIC and checkerboard (FIC) assay
[1] = tested on: MRSA SA-ST239; details: for MIC: Staphylococcus aureus, MRSA; for FIC / MIC combine: ST239
[2] = tested on: CA-MRSA strain ST30; format: cell-based, Staphylococcus aureus; details: Staphylococcus aureus, MRSA
[3] = tested on: S. aureus SA-RN4220-pUL5054 (RN4220); details: Staphylococcus aureus
[4] = tested on: S. aureus SA-APH3′ (APH3), resistant to kanamycin; details: Staphylococcus aureus, read-out: Minimum inhibitory concentration to compound (MIC)
[5] = tested on: S. aureus SA-APH2″-AAC6′ (APH2), resistant to gentamicin; details: for MIC: Staphylococcus aureus
[6] = tested on: S. aureus SA-ANT4′ (ANT4), resistant to fusidic acid; details: Staphylococcus aureus, read-out: Minimum inhibitory concentration to compound (MIC)
[7] = tested on: S. aureus SA-1199B (NorA efflux pump overexpressed); details: Staphylococcus aureus, read-out: Minimum inhibitory concentration to compound (MIC), 1199B′; Table 8
[8] = tested on: HA MRSA W231
[9] = tested on: HA MRSA W238
[10] = tested on: HA MRSA W233
[11] = read-out: Activity (MIC, μg/ml)
[12] = read-out: Minimum inhibitory concentration to compound (MIC)
[13] = ST30, Table 8, read-out: Minimum inhibitory concentration to compound (MIC)
[14] = ST30, read-out: Activity (MIC, μg/ml)
[15] = APH2″-AAC6′, ECG with WQD-169 (Kuraridin)

Molecule	MIC [1, 11] [µg/mL]	MIC [2, 11] [µg/mL]	MIC [3, 11] [µg/mL]	MIC ([1]; read-out: MIC alone) [µg/mL]	MIC [4] [µg/mL]	MIC [5, 12] [µg/mL]	MIC [2, 13] [µg/mL]	MIC [2, 14] [µg/mL]	MIC [6] [µg/mL]	MIC [3, 12] [µg/mL]	MIC [7] [µg/mL]	further results
C=C(C)C(CC=C(C)C)Cc1c(OC)cc(OC)c(C(=O)/C=C/c2ccc(OCc3ccccc3)cc2OCc2ccccc2)c1OC (stereo not shown) [WQD-8]	> 256	> 256	> 256									
C=C(C)C(CC=C(C)C)Cc1c(OC)cc(OC)c(C(=O)/C=C/c2ccccc2O)c1OC (stereo not shown) [WQD-98]	> 256	> 256	> 256									
C=C(C)C(CC=C(C)C)Cc1c(OC)cc(OC)c(C(=O)/C=C/c2ccc(O)cc2)c1OC (stereo not shown) [WQD-101]	> 256	> 256	> 256									
C=C(C)C(CC=C(C)C)Cc1c(O)cc(OC)c(C(=O)/C=C/c2ccccc2O)c1O (stereo not shown) [WQD-165]	4			4	4	4	32	32	8	8	8	FIC ([1]; ECG with WQD-165): 1; MIC combine ([1]; ECG with WQD-165): 4 µg/mL; FIC ([5]; APH2″-AAC6′, ECG with WQD-165): 1; MIC combine ([5]; APH2″-AAC6′, ECG with WQD-165): 4 µg/mL; MIC ([5]; read-out: MIC alone): 4 µg/mL
C=C(C)C(CC=C(C)C)Cc1c(O)cc(OC)c(C(=O)/C=C/c2ccc(O)cc2O)c1O (stereo not shown) [WQD-169, (E)-1-(2,4-dihydroxy-6-methoxy-3-(5-methyl-2-(prop-1-en-2-yl)hex-4-en-1-yl)phenyl)-3-(2,4-dihydroxyphenyl)prop-2-en-1-one]	8			8	8	8	8	8	8	8	8	FIC ([1]; ECG with WQD-169 (Kuraridin)): 0.5; MIC combine ([1]; ECG with WQD-169 (Kuraridin)): 4 µg/mL; FIC [5, 15]: 0.25; MIC combine [5, 15]: 2 µg/mL; MIC alone ([5]; Strain APH2″-AAC6′, Table 9): 8 µg/mL
C=C(C)C(CC=C(C)C)Cc1c(O)cc(OC)c(C(=O)/C=C/c2ccc(O)cc2)c1O (stereo not shown) [WQD-175]	4			4	4	4	16	16	8	8	8	FIC ([1]; ECG with WQD-175): 1; MIC combine ([1]; ECG with WQD-175): 4 µg/mL; FIC ([5]; APH2″-AAC6′, ECG with WQD-175): 1; MIC combine ([5]; APH2″-AAC6′, ECG with WQD-175): 4 µg/mL; MIC ([5]; read-out: MIC alone): 4 µg/mL
gentamicin [reference compound]												MIC alone ([5]; APH2 (gentamicin resistant)): > 512 µg/mL; MIC alone ([5]; APH2 (gentamicin resistant), listed as Gen): 512 µg/mL; FIC ([5]; APH2, ECG+Kur+Gen): 0.0312; MIC combine ([5]; APH2, ECG+Kur+Gen): 16 µg/mL; MIC alone ([8]; W231 (gentamicin resistant)): 64 µg/mL; FIC ([8]; W231, ECG+Kur+Gen): 0.015; MIC combine ([8]; W231, ECG+Kur+Gen): 1 µg/mL; MIC alone ([9]; W238 (gentamicin resistant)): 512 µg/mL; FIC ([9]; W238, ECG+Kur+Gen): 0.03; MIC combine ([9]; W238, ECG+Kur+Gen): 16 µg/mL; MIC alone ([10]; W233 (gentamicin resistant)): 512 µg/mL; FIC ([10]; W233, ECG+Kur+Gen): 0.03; MIC combine ([10]; W233, ECG+Kur+Gen): 16 µg/mL
